According to ChEMBL document CHEMBL1909046, “DrugMatrix in vitro pharmacology data”:

Legend:
[1] = DRUGMATRIX: ATPase, Na+/K+ enzyme inhibition (substrate: ATP); type: tissue-based, Sus scrofa, Heart; settings: Not Active = under 50% inhibition at 10 µM
Substance-P receptor = Substance-P receptor (Homo sapiens, UniProt P25103); type: cell membranes, CHO, Membrane; settings: cho; further: in other assays of this panel Not Active means under 50% inhibition at 10 µM
Carbonic anhydrase 2 = Carbonic anhydrase 2 (Homo sapiens, UniProt P00918); experiment: DRUGMATRIX: Carbonic Anhydrase II enzyme inhibition (substrate: 4-Nitrophenyl acetate (4-NPA)); type: tissue-based, Erythrocyte; settings: erythrocyte; Not Active = under 50% inhibition at 10 µM
[2] = DRUGMATRIX: GABAA, Flunitrazepam, Central radioligand binding (ligand: [3H] Flunitrazepam); type: cell membranes, Rattus norvegicus, Wistar, Brain, Membrane; settings: Not Active = under 50% inhibition at 10 µM
[3] = DRUGMATRIX: Glutamate, AMPA radioligand binding (ligand: [3H] AMPA); type: cell membranes, Rattus norvegicus, Wistar, Cerebral cortex, Membrane; settings: Not Active = under 50% inhibition at 10 µM
[4] = DRUGMATRIX: Platelet-Derived Growth Factor (PDGF) radioligand binding (ligand: [125I] PDGF); type: cell-based; settings: nih3t3; Not Active = under 50% inhibition at 10 µM
Adenosine receptor A3 = target: T1, Adenosine receptor A3 (Homo sapiens, UniProt P0DMS8); type: cell membranes, CHO-K1, Membrane; settings: cho-k1;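 further: radioligand binding assay with AB-MECA serving as the labeled ligand; in other assays of this panel Not Active means under 50% inhibition at 10 µM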
T1 sequence (P0DMS8 whole entry): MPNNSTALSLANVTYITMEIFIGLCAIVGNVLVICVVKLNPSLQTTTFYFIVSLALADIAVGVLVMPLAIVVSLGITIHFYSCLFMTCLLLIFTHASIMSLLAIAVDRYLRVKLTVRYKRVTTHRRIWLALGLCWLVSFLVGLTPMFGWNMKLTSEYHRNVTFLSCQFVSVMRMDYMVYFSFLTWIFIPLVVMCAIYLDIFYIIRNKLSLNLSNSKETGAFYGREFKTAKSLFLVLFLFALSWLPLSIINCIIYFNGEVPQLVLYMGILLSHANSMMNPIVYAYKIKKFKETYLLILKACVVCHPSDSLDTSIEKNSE

Substance-P receptor, sequence (P25103 whole entry): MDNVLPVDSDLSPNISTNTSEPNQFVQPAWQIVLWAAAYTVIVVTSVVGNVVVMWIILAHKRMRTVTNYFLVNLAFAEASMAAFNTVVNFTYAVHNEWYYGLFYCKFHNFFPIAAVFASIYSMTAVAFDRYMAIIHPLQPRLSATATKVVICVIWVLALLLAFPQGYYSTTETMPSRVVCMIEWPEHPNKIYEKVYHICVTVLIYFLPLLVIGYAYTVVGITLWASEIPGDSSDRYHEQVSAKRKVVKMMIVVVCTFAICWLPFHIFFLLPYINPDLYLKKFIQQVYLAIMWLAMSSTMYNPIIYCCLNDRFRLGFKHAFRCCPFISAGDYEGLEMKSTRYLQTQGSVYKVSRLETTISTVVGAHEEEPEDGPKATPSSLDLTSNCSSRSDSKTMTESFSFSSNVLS

c1ccc2c(c1)c1cccc3ccc4cccc2c4c31 [BENZO[E]PYRENE]
Not Active: IC50 [1] | Ki [1] | IC50 (Substance-P receptor) | IC50 (Carbonic anhydrase 2) | IC50 [2] | Ki [2] | IC50 [3] | Ki [3] | IC50 [4] | Ki [4] | IC50 (Adenosine receptor A3)

CNCCc1ccccn1 [BETAHISTINE]
Not Active: IC50 [1] | Ki [1] | IC50 (Substance-P receptor) | IC50 (Carbonic anhydrase 2) | IC50 [2] | Ki [2] | IC50 [3] | Ki [3] | IC50 [4] | Ki [4] | IC50 (Adenosine receptor A3)

CC(C)C(Br)C(=O)NC(N)=O (stereo unspecified) [BROMISOVALUM]
Not Active: IC50 [1] | Ki [1] | IC50 (Substance-P receptor) | IC50 (Carbonic anhydrase 2) | IC50 [2] | Ki [2] | IC50 [3] | Ki [3] | IC50 [4] | Ki [4] | IC50 (Adenosine receptor A3)

CCCC1O[C@@H]2C[C@H]3[C@@H]4CCC5=CC(=O)C=C[C@]5(C)[C@H]4[C@@H](O)C[C@]3(C)[C@]2(C(=O)CO)O1 (stereo partly specified) [BUDESONIDE]
Not Active: IC50 [1] | Ki [1] | IC50 (Substance-P receptor) | IC50 (Carbonic anhydrase 2) | IC50 [2] | Ki [2] | IC50 [3] | Ki [3] | IC50 [4] | Ki [4] | IC50 (Adenosine receptor A3)

CC(NC(C)(C)C)C(=O)c1cccc(Cl)c1 (stereo unspecified) [BUPROPION]
Not Active: IC50 [1] | Ki [1] | IC50 (Substance-P receptor) | IC50 (Carbonic anhydrase 2) | IC50 [2] | Ki [2] | IC50 [3] | Ki [3] | IC50 [4] | Ki [4] | IC50 (Adenosine receptor A3)

CN(Cc1ccc(C(C)(C)C)cc1)Cc1cccc2ccccc12 [BUTENAFINE]
Not Active: IC50 [1] | Ki [1] | IC50 (Substance-P receptor) | IC50 (Carbonic anhydrase 2) | IC50 [2] | Ki [2] | IC50 [3] | Ki [3] | IC50 [4] | Ki [4] | IC50 (Adenosine receptor A3)

C[C@H](CS)C(=O)N1CCC[C@H]1C(=O)O [CAPTOPRIL]
Not Active: IC50 [1] | Ki [1] | IC50 (Substance-P receptor) | IC50 (Carbonic anhydrase 2) | IC50 [2] | Ki [2] | IC50 [3] | Ki [3] | IC50 [4] | Ki [4] | IC50 (Adenosine receptor A3)

O=C(O)CCCc1ccc(N(CCCl)CCCl)cc1 [CHLORAMBUCIL]
Not Active: IC50 [1] | Ki [1] | IC50 (Substance-P receptor) | IC50 (Carbonic anhydrase 2) | IC50 [2] | Ki [2] | IC50 [3] | Ki [3] | IC50 [4] | Ki [4] | IC50 (Adenosine receptor A3)

CN(C)CCCN1c2ccccc2Sc2ccc(Cl)cc21 [CHLORPROMAZINE]
Not Active: IC50 [1] | Ki [1] | IC50 (Substance-P receptor) | IC50 (Carbonic anhydrase 2) | IC50 [2] | Ki [2] | IC50 [3] | Ki [3] | IC50 [4] | Ki [4] | IC50 (Adenosine receptor A3)

C[C@H](CCC(=O)O)[C@H]1CC[C@H]2[C@@H]3[C@H](O)C[C@@H]4C[C@H](O)CC[C@]4(C)[C@H]3C[C@H](O)[C@]12C [CHOLIC ACID]
Not Active: IC50 [1] | Ki [1] | IC50 (Substance-P receptor) | IC50 (Carbonic anhydrase 2) | IC50 [2] | Ki [2] | IC50 [3] | Ki [3] | IC50 [4] | Ki [4] | IC50 (Adenosine receptor A3)

Cc1cc(C2CCCCC2)n(O)c(=O)c1 [CICLOPIROX]
Not Active: IC50 [1] | Ki [1] | IC50 (Substance-P receptor) | IC50 (Carbonic anhydrase 2) | IC50 [2] | Ki [2] | IC50 [3] | Ki [3] | IC50 [4] | Ki [4] | IC50 (Adenosine receptor A3)
